Reference: the supplement of paper PMC10307832

Key:
Assay in all cases: relative viability (nuclei count vs DMSO), 5 days (fraction); higher = more cells survive
[1] = compound: CC1=C(N=C(N=C1N)[C@H](CC(=O)N)NC[C@@H](C(=O)N)N)C(=O)N[C@@H]([C@H](C2=CN=CN2)OC3C(C(C(C(O3)CO)O)O)OC4C(C(C(C(O4)CO)O)OC(=O)N)O)C(=O)N[C@H](C)[C@H]([C@H](C)C(=O)N[C@@H]([C@@H](C)O)C(=O)NCCC5=NC(=CS5)C6=NC(=CS6)C(=O)NCCC[S+](C)C)O [Bleomycin] + O=C(c1cc(Cc2n[nH]c(=O)c3ccccc23)ccc1F)N1CCN(C(=O)C2CC2)CC1 [Olaparib] (partner 8 µM); details: main component drawn
Summary of the method: (§1)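 Lung cancer cell lines in 1536-well plates were dosed by pin tool the day after seeding, either with one drug alone or with a fixed anchor-drug dose plus five library-drug doses (not always all listed) in √10 steps. After 5 days, cells were fixed and their nuclei stained in one step (final 0.05% Triton X-100, 1% formaldehyde, 1 ug/ml Hoechst), then counted on 4× images. Relative viability is the nuclei count in treated wells divided by that in vehicle wells. Values are medians of duplicate plates.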

[2] = compound: COc1cc([C@@H]2c3cc4c(cc3[C@@H](O[C@@H]3O[C@@H]5CO[C@@H](C)O[C@H]5[C@H](O)[C@H]3O)[C@H]3COC(=O)[C@H]23)OCO4)cc(OC)c1O [Etoposide] + CC(=O)Nc1cccc(-n2c(=O)n(C3CC3)c(=O)c3c(Nc4ccc(I)cc4F)n(C)c(=O)c(C)c32)c1 [Trametinib] (partner 0.02 µM)
Summary of the method: as §1

[3] = compound: COc1cc([C@@H]2c3cc4c(cc3[C@@H](O[C@@H]3O[C@@H]5CO[C@@H](C)O[C@H]5[C@H](O)[C@H]3O)[C@H]3COC(=O)[C@H]23)OCO4)cc(OC)c1O [Etoposide] + COc1cccc2cc(-c3nc([C@H]4CC[C@H](C(=O)O)CC4)n4ncnc(N)c34)[nH]c12 [OSI-027] (partner 0.5 µM)
Summary of the method: as §1

[4] = compound: COc1cc([C@@H]2c3cc4c(cc3[C@@H](O[C@@H]3O[C@@H]5CO[C@@H](C)O[C@H]5[C@H](O)[C@H]3O)[C@H]3COC(=O)[C@H]23)OCO4)cc(OC)c1O [Etoposide] + C[C@@H](Oc1cc(-c2cnn(C3CCNCC3)c2)cnc1N)c1c(Cl)ccc(F)c1Cl [Crizotinib] (partner 1 µM)
Summary of the method: as §1

Row | Cell Line | relative viability ([1]; first compound 0.01 µM) | relative viability ([1]; first compound 0.03162 µM) | relative viability ([1]; first compound 0.1 µM) | relative viability ([1]; first compound 0.3162 µM) | relative viability ([1]; first compound 1 µM) | relative viability ([2]; first compound 0.01 µM) | relative viability ([2]; first compound 0.03162 µM) | relative viability ([2]; first compound 0.1 µM) | relative viability ([2]; first compound 0.3162 µM) | relative viability ([2]; first compound 1 µM) | relative viability ([3]; first compound 0.01 µM) | relative viability ([3]; first compound 0.03162 µM) | relative viability ([3]; first compound 0.1 µM) | relative viability ([3]; first compound 0.3162 µM) | relative viability ([3]; first compound 1 µM) | relative viability ([4]; first compound 0.01 µM) | relative viability ([4]; first compound 0.03162 µM) | relative viability ([4]; first compound 0.1 µM) | relative viability ([4]; first compound 0.3162 µM) | relative viability ([4]; first compound 1 µM)
1 | NCI-H2342 | 0.377 | 0.4 | 0.416 | 0.319 | 0.362 | 0.777 | 0.881 | 0.505 | 0.355 | 0.344 | 0.707 | 0.649 | 0.51 | 0.402 | 0.352 | – | – | – | – | –
2 | SK-MES-1 | 0.528 | 0.493 | 0.439 | 0.169 | 0.153 | 0.5 | 0.518 | 0.594 | 0.46 | 0.277 | 0.523 | 0.616 | 0.544 | 0.437 | 0.189 | 0.943 | 0.957 | 0.887 | 0.433 | 0.273
3 | NCI-H2087 | 0.366 | 0.46 | 0.442 | 0.182 | 0.145 | 0.206 | 0.213 | 0.173 | 0.2 | 0.147 | 0.514 | 0.59 | 0.364 | 0.386 | 0.173 | – | 1.02 | 0.856 | 0.571 | 0.277
4 | HCC-366 | 0.157 | 0.134 | 0.126 | 0.0346 | 0.0334 | 0.338 | 0.36 | 0.249 | 0.0581 | 0.0512 | 0.911 | 1.16 | 0.466 | 0.374 | 0.0799 | 0.43 | 0.434 | 0.217 | 0.0627 | 0.0226
5 | 201T | 0.759 | 0.763 | 0.715 | 0.507 | 0.411 | 0.73 | 0.76 | 0.707 | 0.602 | 0.544 | 0.6 | 0.693 | 0.641 | 0.566 | 0.283 | 1.02 | 1.03 | 0.975 | 0.898 | 0.678
6 | HCC-827 | 0.522 | – | 0.446 | 0.209 | 0.161 | 0.497 | 0.525 | 0.315 | 0.23 | 0.187 | 0.742 | 0.773 | 0.569 | 0.668 | 0.174 | 0.879 | 0.941 | 0.662 | 0.394 | 0.228
7 | NCI-H650 | 0.333 | 0.463 | 0.336 | 0.264 | 0.175 | 0.884 | 0.951 | 0.681 | 0.527 | 0.195 | 0.571 | 0.506 | 0.44 | 0.443 | 0.249 | 0.568 | 0.831 | 0.416 | 0.339 | 0.174
8 | NCI-H2023 | 0.273 | 0.357 | 0.238 | 0.0886 | 0.09 | 0.448 | 0.647 | 0.559 | 0.452 | 0.186 | 0.4 | 0.451 | 0.223 | 0.286 | 0.119 | 0.605 | 0.622 | 0.525 | 0.212 | 0.106
